Experimental data published in patent US6355799B1, “Substituted benzene compounds, process for their preparation, and herbicidal and defoliant compositions containing them” (ISK Americas Incorporated, priority 1997, dated 2002).

Assays:
Format in all cases: in vivo
[1] = system: upland rice (Oryza sp., var. Tebonnet, RICE); test: Post-emerge test, crop safety; details: post-emerge, 14 days after application, rating scale 0-100
Procedure, shortened: (§1)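 Sandy loam pots; pre-emerge: sown 1 d pre-spray, surface-watered after, then bottom-watered. Post-emerge: sown 8–21 d before, 2–3 leaf stage, + 0.25% v/v NIS, bottom-watered. Acetone, 187 l/ha track spray, 15–1000 g ai/ha. 0–100 injury score, day 14.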

[2] = system: field corn (Zea mays L., var. Dekalb 535, CORN); test: Post-emerge test, crop safety; details: post-emerge, 14 days after application, rating scale 0-100
Procedure, shortened: as §1

[3] = system: barnyardgrass (Echinochloa crus-galli, ECHCG); test: Post-emerge test, greenhouse herbicide activity screening; details: post-emerge, 14 days after application, rating scale 0-100
Procedure, shortened: (§2)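 Compounds in acetone were track-sprayed at 187 l/ha, 15–1000 g ai/ha, onto sandy loam pots. Pre-emerge seeds were sown one day before spraying, with surface watering afterwards. Post-emerge plants were at the 2–3 leaf stage and sprayed with 0.25% v/v non-ionic surfactant. Injury was rated 0–100 at 14 days.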

[4] = system: johnsongrass (Sorghum halepense, SORHA); test: as above; details: post-emerge, 14 days after application, rating scale 0-100
Procedure, shortened: as §2

[5] = system: green foxtail (Setaria viridis, SETVI); test: as above; details: post-emerge, 14 days after application, rating scale 0-100
Procedure, shortened: as §2

[6] = system: large crabgrass (Digitaria sanguinalis, DIGSA); test: as above; details: post-emerge, 14 days after application, rating scale 0-100
Procedure, shortened: as §2

[7] = system: lambsquarters (Chenopodium album, CHEAL); test: as above; details: post-emerge, 14 days after application, rating scale 0-100
Procedure, shortened: as §2

[8] = system: sicklepod (Cassia obtusifolia, CASOB); test: as above; details: post-emerge, 14 days after application, rating scale 0-100
Procedure, shortened: as §2

[9] = system: redroot pigweed (Amaranthus retroflexus, AMARE); test: as above; details: post-emerge, 14 days after application, rating scale 0-100
Procedure, shortened: as §2

[10] = system: velvetleaf (Abutilon theophrasti, ABUTH); test: as above; details: post-emerge, 14 days after application, rating scale 0-100
Procedure, shortened: as §2

[11] = system: ivyleaf morningglory (Ipomoea hederacea, IPOHE); test: as above; details: post-emerge, 14 days after application, rating scale 0-100
Procedure, shortened: as §2

[12] = system: redroot pigweed (Amaranthus retroflexus, AMARE); test: Pre-emerge test, greenhouse herbicide activity screening; details: rated 14 days after application, 0 = no damage, 100 = complete death
Procedure, shortened: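 Rating: 0–100 visual injury, 14 DAA. Application: acetone, 187 l/ha, 15–1000 g ai/ha, flat-fan track sprayer with nozzle 40–45 cm above soil or canopy. Post-emerge runs used 0.25% v/v surfactant on 2–3 leaf plants.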

[13] = system: barnyardgrass (Echinochloa crus-galli, ECHCG); test: as above; details: rated 14 days after application, 0 = no damage, 100 = complete death
Procedure, shortened: as §1

[14] = system: johnsongrass (Sorghum halepense, SORHA); test: as above; details: rated 14 days after application, 0 = no damage, 100 = complete death
Procedure, shortened: as §1

[15] = system: green foxtail (Setaria viridis, SETVI); test: as above; details: rated 14 days after application, 0 = no damage, 100 = complete death
Procedure, shortened: as §1

[16] = system: large crabgrass (Digitaria sanguinalis, DIGSA); test: as above; details: rated 14 days after application, 0 = no damage, 100 = complete death
Procedure, shortened: as §1

[17] = system: lambsquarters (Chenopodium album, CHEAL); test: as above; details: rated 14 days after application, 0 = no damage, 100 = complete death
Procedure, shortened: as §1

[18] = system: sicklepod (Cassia obtusifolia, CASOB); test: as above; details: rated 14 days after application, 0 = no damage, 100 = complete death
Procedure, shortened: as §1

[19] = system: velvetleaf (Abutilon theophrasti, ABUTH); test: as above; details: rated 14 days after application, 0 = no damage, 100 = complete death
Procedure, shortened: as §1

[20] = system: ivyleaf morningglory (Ipomoea hederacea, IPOHE); test: as above; details: rated 14 days after application, 0 = no damage, 100 = complete death
Procedure, shortened: as §1

[21] = system: upland rice (Oryza sp., var. Tebonnet, RICE); test: Pre-emerge test, crop safety; details: rated 14 days after application, 0 = no damage, 100 = complete death
Procedure, shortened: (§3)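 Herbicidal damage is scored 0 (none) to 100 (complete plant death) two weeks after a simulated field spray. Rates span 15–1000 g ai/ha, delivered in acetone at 187 l/ha. For post-emergence treatments, plants have 2–3 leaves and the spray carries 0.25% v/v non-ionic surfactant.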

[22] = system: field corn (Zea mays L., var. Dekalb 535, CORN); test: Pre-emerge test, crop safety; details: rated 14 days after application, 0 = no damage, 100 = complete death
Procedure, shortened: as §3

SMILES: COc1c(Cl)cc(F)c(-n2c(=O)cc(C(F)(F)F)n(C)c2=O)c1NC(=O)C=Cc1ccco1 [2-92]
- phytotoxicity rating RICE ([1]; 63 g ai/ha): 10
- phytotoxicity rating RICE ([1]; 250 g ai/ha): 60
- phytotoxicity rating CORN ([2]; 63 g ai/ha): 0
- phytotoxicity rating CORN ([2]; 250 g ai/ha): 30
- phytotoxicity rating ECHCG ([3]; 63 g ai/ha): 0
- phytotoxicity rating ECHCG ([3]; 250 g ai/ha): 0
- phytotoxicity rating SORHA ([4]; 63 g ai/ha): 0
- phytotoxicity rating SORHA ([4]; 250 g ai/ha): 0
- phytotoxicity rating SETVI ([5]; 63 g ai/ha): 0
- phytotoxicity rating SETVI ([5]; 250 g ai/ha): 0
- phytotoxicity rating DIGSA ([6]; 63 g ai/ha): 0
- phytotoxicity rating DIGSA ([6]; 250 g ai/ha): 0
- phytotoxicity rating CHEAL ([7]; 63 g ai/ha): 20
- phytotoxicity rating CHEAL ([7]; 250 g ai/ha): 80
- phytotoxicity rating CASOB ([8]; 63 g ai/ha): 0
- phytotoxicity rating CASOB ([8]; 250 g ai/ha): 30
- phytotoxicity rating AMARE ([9]; 63 g ai/ha): 20
- phytotoxicity rating AMARE ([9]; 250 g ai/ha): 50
- phytotoxicity rating ABUTH ([10]; 63 g ai/ha): 100
- phytotoxicity rating ABUTH ([10]; 250 g ai/ha): 100
- phytotoxicity rating IPOHE ([11]; 63 g ai/ha): 20
- phytotoxicity rating IPOHE ([11]; 250 g ai/ha): 100
- Pre-emerge Herbicidal Activity, phytotoxicity rating (0-100), AMARE ([12]; 63 g ai/ha): 50
- Pre-emerge Herbicidal Activity, phytotoxicity rating (0-100), AMARE ([12]; 250 g ai/ha): 100
- Pre-emerge Herbicidal Activity, phytotoxicity rating (0-100), ECHCG ([13]; 63 g ai/ha): 0
- Pre-emerge Herbicidal Activity, phytotoxicity rating (0-100), ECHCG ([13]; 250 g ai/ha): 20
- Pre-emerge Herbicidal Activity, phytotoxicity rating (0-100), SORHA ([14]; 63 g ai/ha): 0
- Pre-emerge Herbicidal Activity, phytotoxicity rating (0-100), SORHA ([14]; 250 g ai/ha): 40
- Pre-emerge Herbicidal Activity, phytotoxicity rating (0-100), SETVI ([15]; 63 g ai/ha): 30
- Pre-emerge Herbicidal Activity, phytotoxicity rating (0-100), SETVI ([15]; 250 g ai/ha): 90
- Pre-emerge Herbicidal Activity, phytotoxicity rating (0-100), DIGSA ([16]; 63 g ai/ha): 0
- Pre-emerge Herbicidal Activity, phytotoxicity rating (0-100), DIGSA ([16]; 250 g ai/ha): 20
- Pre-emerge Herbicidal Activity, phytotoxicity rating (0-100), CHEAL ([17]; 63 g ai/ha): 100
- Pre-emerge Herbicidal Activity, phytotoxicity rating (0-100), CHEAL ([17]; 250 g ai/ha): 100
- Pre-emerge Herbicidal Activity, phytotoxicity rating (0-100), CASOB ([18]; 63 g ai/ha): 40
- Pre-emerge Herbicidal Activity, phytotoxicity rating (0-100), CASOB ([18]; 250 g ai/ha): 100
- Pre-emerge Herbicidal Activity, phytotoxicity rating (0-100), ABUTH ([19]; 63 g ai/ha): 100
- Pre-emerge Herbicidal Activity, phytotoxicity rating (0-100), ABUTH ([19]; 250 g ai/ha): 100
- Pre-emerge Herbicidal Activity, phytotoxicity rating (0-100), IPOHE ([20]; 63 g ai/ha): 30
- Pre-emerge Herbicidal Activity, phytotoxicity rating (0-100), IPOHE ([20]; 250 g ai/ha): 100
- Pre-emerge phytotoxicity rating (0-100), crop damage, RICE ([21]; 63 g ai/ha): 0
- Pre-emerge phytotoxicity rating (0-100), crop damage, RICE ([21]; 250 g ai/ha): 10
- Pre-emerge phytotoxicity rating (0-100), crop damage, CORN ([22]; 63 g ai/ha): 0
- Pre-emerge phytotoxicity rating (0-100), crop damage, CORN ([22]; 250 g ai/ha): 20

SMILES: Cn1c(C(F)(F)F)cc(=O)n(-c2c(F)cc(Cl)c(O)c2NC(=O)c2ncccn2)c1=O [2-102]
- phytotoxicity rating RICE ([1]; 63 g ai/ha): 0
- phytotoxicity rating RICE ([1]; 250 g ai/ha): 0
- phytotoxicity rating CORN ([2]; 63 g ai/ha): 0
- phytotoxicity rating CORN ([2]; 250 g ai/ha): 0
- phytotoxicity rating ECHCG ([3]; 63 g ai/ha): 0
- phytotoxicity rating ECHCG ([3]; 250 g ai/ha): 0
- phytotoxicity rating SORHA ([4]; 63 g ai/ha): 0
- phytotoxicity rating SORHA ([4]; 250 g ai/ha): 0
- phytotoxicity rating SETVI ([5]; 63 g ai/ha): 0
- phytotoxicity rating SETVI ([5]; 250 g ai/ha): 0
- phytotoxicity rating DIGSA ([6]; 63 g ai/ha): 0
- phytotoxicity rating DIGSA ([6]; 250 g ai/ha): 0
- phytotoxicity rating CHEAL ([7]; 63 g ai/ha): 0
- phytotoxicity rating CHEAL ([7]; 250 g ai/ha): 0
- phytotoxicity rating CASOB ([8]; 63 g ai/ha): 0
- phytotoxicity rating CASOB ([8]; 250 g ai/ha): 0
- phytotoxicity rating AMARE ([9]; 63 g ai/ha): 0
- phytotoxicity rating AMARE ([9]; 250 g ai/ha): 40
- phytotoxicity rating ABUTH ([10]; 63 g ai/ha): 0
- phytotoxicity rating ABUTH ([10]; 250 g ai/ha): 30
- phytotoxicity rating IPOHE ([11]; 63 g ai/ha): 0
- phytotoxicity rating IPOHE ([11]; 250 g ai/ha): 0
- Pre-emerge Herbicidal Activity, phytotoxicity rating (0-100), AMARE ([12]; 63 g ai/ha): 30
- Pre-emerge Herbicidal Activity, phytotoxicity rating (0-100), AMARE ([12]; 250 g ai/ha): 0
- Pre-emerge Herbicidal Activity, phytotoxicity rating (0-100), ECHCG ([13]; 63 g ai/ha): 0
- Pre-emerge Herbicidal Activity, phytotoxicity rating (0-100), ECHCG ([13]; 250 g ai/ha): 0
- Pre-emerge Herbicidal Activity, phytotoxicity rating (0-100), SORHA ([14]; 63 g ai/ha): 0
- Pre-emerge Herbicidal Activity, phytotoxicity rating (0-100), SORHA ([14]; 250 g ai/ha): 0
- Pre-emerge Herbicidal Activity, phytotoxicity rating (0-100), SETVI ([15]; 63 g ai/ha): 0
- Pre-emerge Herbicidal Activity, phytotoxicity rating (0-100), SETVI ([15]; 250 g ai/ha): 0
- Pre-emerge Herbicidal Activity, phytotoxicity rating (0-100), DIGSA ([16]; 63 g ai/ha): 0
- Pre-emerge Herbicidal Activity, phytotoxicity rating (0-100), DIGSA ([16]; 250 g ai/ha): 0
- Pre-emerge Herbicidal Activity, phytotoxicity rating (0-100), CHEAL ([17]; 63 g ai/ha): 0
- Pre-emerge Herbicidal Activity, phytotoxicity rating (0-100), CHEAL ([17]; 250 g ai/ha): 0
- Pre-emerge Herbicidal Activity, phytotoxicity rating (0-100), CASOB ([18]; 63 g ai/ha): 0
- Pre-emerge Herbicidal Activity, phytotoxicity rating (0-100), CASOB ([18]; 250 g ai/ha): 0
- Pre-emerge Herbicidal Activity, phytotoxicity rating (0-100), ABUTH ([19]; 63 g ai/ha): 0
- Pre-emerge Herbicidal Activity, phytotoxicity rating (0-100), ABUTH ([19]; 250 g ai/ha): 0
- Pre-emerge Herbicidal Activity, phytotoxicity rating (0-100), IPOHE ([20]; 63 g ai/ha): 0
- Pre-emerge Herbicidal Activity, phytotoxicity rating (0-100), IPOHE ([20]; 250 g ai/ha): 0
- Pre-emerge phytotoxicity rating (0-100), crop damage, RICE ([21]; 63 g ai/ha): 0
- Pre-emerge phytotoxicity rating (0-100), crop damage, RICE ([21]; 250 g ai/ha): 0
- Pre-emerge phytotoxicity rating (0-100), crop damage, CORN ([22]; 63 g ai/ha): 0
- Pre-emerge phytotoxicity rating (0-100), crop damage, CORN ([22]; 250 g ai/ha): 0
